Consider seven molecules from patent US7449473B2, “Substituted pyrrolo[3,2-d]pyrimidin-2,4-diones as A2b adenosine receptor antagonists” (CV Therapeutics, Inc., priority 2003, dated 2008).

The experiment deals with T1, Human A2B adenosine receptor (Homo sapiens, UniProt P29275).
T1 construct: expressed in transfected cells; host or cells: HEK-293 (HEK-A2B), membrane preparation
T1 sequence (P29275 1-332): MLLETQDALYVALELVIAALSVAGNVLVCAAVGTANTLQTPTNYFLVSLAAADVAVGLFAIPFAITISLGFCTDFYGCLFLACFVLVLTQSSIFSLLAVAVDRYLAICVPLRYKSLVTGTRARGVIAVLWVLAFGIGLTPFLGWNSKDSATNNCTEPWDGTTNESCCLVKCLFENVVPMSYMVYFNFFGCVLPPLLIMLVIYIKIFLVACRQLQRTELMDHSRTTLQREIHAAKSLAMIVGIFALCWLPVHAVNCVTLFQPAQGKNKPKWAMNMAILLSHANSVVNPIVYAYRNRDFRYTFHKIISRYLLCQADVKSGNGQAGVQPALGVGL
Kind of experiment: Radioligand binding for A2B adenosine receptor (3H-ZM241385 competition, HEK-A2B membranes). The note with it: competition with 10 nM 3H-ZM241385, HEK-A2B cell membranes. The method, then: Radioligand Binding for A2B Adenosine Receptor.
Human A2B adenosine receptor cDNA was stably transfected into HEK-293 cells (referred to as HEK-A2B cells). Monolayer of HEK-A2B cells were washed with PBS once and harvested in a buffer containing 10 mM HEPES (pH 7.4), 10 mM EDTA and protease inhibitors. These cells were homogenized in polytron for 1 minute at setting 4 and centrifuged at 29000 g for 15 minutes at 4° C. The cell pellets were washed once with a buffer containing 10 mM HEPES (pH7.4), 1 mM EDTA and protease inhibitors, and were resuspended in the same buffer supplemented with 10% sucrose. Frozen aliquots were kept at −80° C. Competition assays were started by mixing 10 nM ^3H-ZM241385 (Tocris Cookson) with various concentrations of test compounds and 50 μg membrane proteins in TE buffer (50 mM Tris and 1 mM EDTA) supplemented with 1 Unit/mL adenosine deaminase. The assays were incubated for 90 minutes, stopped by filtration using Packard Harvester and washed four times with ice-cold TM buffer (10 mM Tris, 1 mM MgCl2, pH 7.4). Non specific binding was determined in the presence of 10 μM ZM241385. The affinities of compounds (i.e. Ki values) were calculated using GraphPad software.

The structures appear in SMILES notation.

The molecule `CCCn1c(=O)c2c(cc(-c3ccccn3)n2O)n(CCC)c1=O` [1,3-dipropyl-8-(pyridin-2-yl)-7-hydroxy-1H-pyrrolo[3,2-d]pyrimidine-2,6-dione] returned a Ki of 129 nM.
`CCCn1c(=O)c2[nH]c(-c3cnn(Cc4ccccc4)c3)cc2n(CCC)c1=O` [6-[1-benzylpyrazol-4-yl]-1,3-dipropyl-1,3-dihydropyrrolo[3,2-d]pyrimidine-2,4-dione] showed a Ki of 26 nM.
In turn, `CCCn1c(=O)c2c(cc(-c3cnn(Cc4cccc(C(F)(F)F)c4)c3)n2O)n(CCC)c1=O` [8-(1-(3-(trifluoromethyl)benzyl)-1H-pyrazol-4-yl)-7-hydroxy-1,3-dipropyl-1H-pyrrolo[3,2-d]pyrimidine-2,6-dione] returned a Ki of 9 nM.
As to `CCCn1c(=O)c2[nH]c(-c3cnn(Cc4cccc(F)c4)c3)cc2n(CCC)c1=O` [8-(1-(3-fluorobenzyl)-1H-pyrazol-4-yl)-1,3-dipropyl-1H-pyrrolo[3,2-d]pyrimidine-2,6-dione], the Ki came out at 13 nM.
`CCCn1c(=O)c2c(cc(-c3cnn(Cc4ccccc4)c3)n2O)n(CCC)c1=O` [8-(1-benzyl-1H-pyrazol-4-yl)-7-hydroxy-1,3-dipropyl-1H-pyrrolo[3,2-d]pyrimidine-2,6-dione] yielded a Ki of 120 nM.
With `CCCn1c(=O)c2[nH]c(-c3cc[n+]([O-])cc3)cc2n(CCC)c1=O` [8-(N-oxypyridin-4-yl)-1,3-dipropyl-1H-pyrrolo[3,2-d]pyrimidine-2,6-dione], the affinity corresponds to a Ki of 544 nM.
As to `CCCn1c(=O)c2c(cc(-c3ccncc3)n2O)n(CCC)c1=O` [8-(pyridin-4-yl)-7-hydroxy-1,3-dipropyl-1H-pyrrolo[3,2-d]pyrimidine-2,6-dione], the Ki amounted to 12 nM.
